These results are taken from patent publication US20240225970A1, “A METHOD OF REDUCING SKIN IRRITATION, COMPRISING THE APPLICATION TO THE SKIN OF AN ALPHA-BISABOLOL PREPARED BY A BIOTECHNOLOGICAL PROCESS” (Givaudan SA, priority 2020, published 2024).

SMILES strings stand for the structures.

The subject of this assay is pruritus of the scalp. Briefly: Double-blind, placebo-controlled clinical evaluation of scalp itching intensity with shampoos containing 0.5% bisabolol. As to conditions: for itching intensity, Mean +/− SEM: scale of 0-10, washed once a day, volunteers with pruritus of the scalp; for itching intensity, Mean +/− SEM / itching intensity, Δ % mean: shampoo with 0.5% by weight bisabolol; for itching intensity, Δ % mean: D14 versus D0 (T0). Format: in vivo, human. From the text:
Comparison of the improvement in skin soothing effect using shampoos formulated with bio-bisabolol, chemically-produced bisabolol and plant-derived bisabolol. Samples of the bio-bisabolol prepared according to Example 1, a commercially-available synthetic bisabolol and a bisabolol derived from chamomile oil were incorporated into shampoo formulations at 0.5% by weight. An untreated sample of the shampoo was included as placebo. A double-blind, inter-individual and placebo-controlled clinical evaluation was performed on 80 volunteers (both men and women of age 18 and over). The subjects had Fitzpatrick skin types I to IV, and all suffered from pruritus of the scalp. The volunteers washed and rinsed their hair once a day and itching intensity was evaluated on days 1 and 14, using a scale of 0-10, where 0 represents no itching and 10 represents […].

Take `CC(C)=CCC[C@@](C)(O)[C@@H]1CC=C(C)CC1` [Example 1 bio-bisabolol, (−)-α-bisabolol]: the “itching intensity, Δ % mean” value is recorded as −93%. In addition, the “itching intensity, Mean +/− SEM” value (D0) is 4.3 ± 0.4. The “itching intensity, Mean +/− SEM” value (D14) was determined as 0.3 ± 0.2. The “reduction in scalp irritation in comparison with the placebo group” value (after 14 days of application, p<0.1) is given as 25%.

`CC(C)=CCC[C@](C)(O)[C@@H]1CC=C(C)CC1` [Plant bisabolol]: the “itching intensity, Δ % mean” value is given as −69%. Further, the “itching intensity, Mean +/− SEM” value (D0) stood at 4.8 ± 0.5. Moreover, the “itching intensity, Mean +/− SEM” value (D14) worked out at 1.5 ± 0.4. In addition, the “reduction in scalp irritation in comparison with the placebo (in words)” value (after 14 days of application) is on record as “did not show any significant reduction”.

Regarding `CC(C)=CCC[C@](C)(O)[C@@H]1CC=C(C)CC1` [Synthetic bisabolol], the “itching intensity, Δ % mean” value is on record as −70%. Further, the “itching intensity, Mean +/− SEM” value (D0) amounted to 4.4 ± 0.5. Besides, the “itching intensity, Mean +/− SEM” value (D14) is given as 1.3 ± 0.4. Besides, for the setting “after 14 days of application”, the “reduction in scalp irritation in comparison with the placebo (in words)” value is reported as “did not show any significant reduction”.
